# Assay results as given in patent US7109193B2, “Tricyclic diazepines tocolytic oxytocin receptor antagonists” (Wyeth, priority 2001, dated 2006).
# Target: T1, human oxytocin receptor (Homo sapiens, UniProt P30559)
# T1 construct: host or cells: CHO cells (pcDNA3.1 vector)
# T1 sequence (P30559 1-389): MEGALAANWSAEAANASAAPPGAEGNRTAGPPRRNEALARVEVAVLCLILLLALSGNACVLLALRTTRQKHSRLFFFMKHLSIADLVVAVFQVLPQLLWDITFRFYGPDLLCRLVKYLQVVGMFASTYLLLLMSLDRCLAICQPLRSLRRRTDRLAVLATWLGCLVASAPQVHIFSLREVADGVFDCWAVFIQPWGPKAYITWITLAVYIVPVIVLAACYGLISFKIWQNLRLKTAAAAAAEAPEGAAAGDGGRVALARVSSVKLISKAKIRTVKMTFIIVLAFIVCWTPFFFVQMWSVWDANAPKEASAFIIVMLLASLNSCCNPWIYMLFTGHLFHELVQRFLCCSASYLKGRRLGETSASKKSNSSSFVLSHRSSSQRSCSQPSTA
# Experiment: Oxytocin binding in Chinese Hamster Ovary cell membranes expressing human oxytocin receptors
# Conditions: 100 nM, CHO cell membranes, [3H]oxytocin, values without parentheses, read-out: OT % inhibition @ 100% nM
row,Structure (SMILES),inhibition at 0.1 µM
1,"Cc1ccccc1-c1ccc(C(=O)N2Cc3ccc(C(=O)N(C)CCN(C)C)n3Cc3ccccc32)cc1 [Example 91, N-[2-(Dimethylamino)ethyl]-N-methyl-10-[(2′-methyl[1,1′-biphenyl]-4-yl)carbonyl]-10,11-dihydro-5H-pyrrolo[2,1-c][1,4]benzodiazepine-3-carboxamide]",97%
2,"COc1ccccc1-c1ccc(C(=O)N2Cc3ccc(C(=O)N(C)CCN(C)C)n3Cc3ccccc32)cc1 [Example 90, N-[2-(Dimethylamino)ethyl]-10-[(2′-methoxy[1,1′-biphenyl]-4-yl)carbonyl]-N-methyl-10,11-dihydro-5H-pyrrolo[2,1-c][1,4]benzodiazepine-3-carboxamide]",100%
3,"COc1cc(C(=O)N2Cc3ccc(C(=O)N(C)CCN(C)C)n3Cc3ccccc32)ccc1-c1cccc2ccccc12 [Example 93, N-[2-(Dimethylamino)ethyl]-10-[3-methoxy-4-(1-naphthyl)benzoyl]-N-methyl-10,11-dihydro-5H-pyrrolo[2,1-c][1,4]benzodiazepine-3-carboxamide]",90%
4,"COc1ccccc1-c1ccc(C(=O)N2Cc3ccc(C(=O)N(C)CCCN(C)C)n3Cc3ccccc32)cc1 [Example 103, N-[3-(Dimethylamino)propyl]-10-[(2′-methoxy[1,1′-biphenyl]-4-yl)carbonyl]-N-methyl-10,11-dihydro-5H-pyrrolo[2,1-c][1,4]benzodiazepine-3-carboxamide]",98%
5,"COc1cccc(-c2ccc(C(=O)N3Cc4ccc(C(=O)N(C)CCN(C)C)n4Cc4ccccc43)cc2C)c1 [Example 89, N-[2-(Dimethylamino)ethyl]-10-[(3′-methoxy-2-methyl[1,1′-biphenyl]-4-yl)carbonyl]-N-methyl-10,11-dihydro-5H-pyrrolo[2,1-c][1,4]benzodiazepine-3-carboxamide]",97%
6,"COc1ccccc1-c1ccc(C(=O)N2Cc3ccc(C(=O)NCCCN(C)C)n3Cc3ccccc32)cc1OC [Example 81, 10-[(2,2′-Dimethoxy[1,1′-biphenyl]-4-yl)carbonyl]-N-[3-(dimethylamino)propyl]-10,11-dihydro-5H-pyrrolo[2,1-c][1,4]benzodiazepine-3-carboxamide]",43%

# Same assay, conditions: CHO cell membranes, [3H]oxytocin, values in parentheses, read-out: OT (IC50)
row,Structure (SMILES),IC50
1,"Cc1cc(C(=O)N2Cc3ccc(C(=O)N(C)CCN(C)C)n3Cc3ccccc32)ccc1-c1ccccc1C(F)(F)F [Example 85, N-[2-(Dimethylamino)ethyl]-N-methyl-10-{[2-methyl-2′-(trifluoromethyl)[1,1′-biphenyl]-4-yl]carbonyl}-10,11-dihydro-5H-pyrrolo[2,1-c][1,4]benzodiazepine-3-carboxamide]",3.02 nM
2,"O=C(c1ccc(-c2cccc3ccccc23)cc1Cl)N1Cc2cccn2Cc2ccccc21 [Example 24, [2-Chloro-4-(naphthalen-1-yl)phenyl][10,11-dihydro-5H-pyrrolo[2,1-c][1,4]benzodiazepin-10-yl]methanone]",8 nM
3,"COc1cccc(-c2ccc(C(=O)N3Cc4ccc(C(=O)N5CC[C@@H](N(C)C)C5)n4Cc4ccccc43)cc2C)c1 [Example 278, [(3R)-3-(Dimethylamino)pyrrolidinyl]{10-[(3′-methoxy-2-methyl[1,1′-biphenyl]-4-yl)carbonyl]-10,11-dihydro-5H-pyrrolo[2,1-c][1,4]benzodiazepin-3-yl}methanone]",7.87 nM
4,"COc1cc(-c2ccccc2C)ccc1C(=O)N1Cc2ccc(C(=O)N(C)CCCN(C)C)n2Cc2ccccc21 [Example 11, N-Methyl-N-[3-(dimethylamino)propyl]-10-[(3-methoxy-2′-methyl[1,1′-biphenyl]-4-yl)carbonyl]-10,11-dihydro-5H-pyrrolo[2,1-c][1,4]benzodiazepine-3-carboxamide]",3.44 nM
5,"COc1cc(-c2ccccc2Cl)c(Cl)cc1C(=O)N1Cc2ccc(C(=O)N(C)C3CCN(C)CC3)n2Cc2ccccc21 [Example 43, 10-[(2′-Chloro-6-chloro-3-methoxy-[1,1′-biphenyl]-4-yl)carbonyl]-N-methyl-N-(1-methylpiperidin-4-yl)-10,11-dihydro-5H-pyrrolo[2,1-c][1,4]benzodiazepine-3-carboxamide]",1.66 nM
6,"COc1ccccc1-c1ccc(C(=O)N2Cc3ccc(C(=O)N4CCN(CCCN(C)C)CC4)n3Cc3ccccc32)cc1 [Example 246, {4-[3-(Dimethylamino)propyl]-1-piperazinyl}{10-[(2′-methoxy[1,1′-biphenyl]-4-yl)carbonyl]-10,11-dihydro-5H-pyrrolo[2,1-c][1,4]benzodiazepin-3-yl}methanone]",17.8 nM
7,"COc1cc(C(=O)N2Cc3ccc(C(=O)N(C)CCCN(C)C)n3Cc3ccccc32)ccc1-c1ccccc1C(F)(F)F [Example 21, N-Methyl-[N-(3-dimethylamino)propyl]-10-{[2-methoxy-2′-trifluoromethyl-[1,1′-biphenyl]-4-yl]carbonyl}-10,11-dihydro-5H-pyrrolo[2,1-c][1,4]benzodiazepin-3-carboxamide]",1.7 nM
8,"COc1cc(-c2ccccc2C)c(Cl)cc1C(=O)N1Cc2ccc(C(=O)N3CCN(CCN(C)C)CC3)n2Cc2ccccc21 [Example 197, {10-[(6-Chloro-3-methoxy-2′-methyl[1,1′-biphenyl]-4-yl)carbonyl]-10,11-dihydro-5H-pyrrolo[2,1-c][1,4]benzodiazepin-3-yl}{4-[2-(dimethylamino)ethyl]-1-piperazinyl}methanone]",5.39 nM
9,"Cc1cc(C(=O)N2Cc3ccc(C(=O)N4CCN(CCN(C)C)CC4)n3Cc3ccccc32)ccc1-c1ccccc1C(F)(F)F [Example 196, {4-[2-(Dimethylamino)ethyl]-1-piperazinyl}(10-{[2-methyl-2′-(trifluoromethyl)[1,1′-biphenyl]-4-yl]carbonyl}-10,11-dihydro-5H-pyrrolo[2,1-c][1,4]benzodiazepin-3-yl)methanone]",11.6 nM
10,"Cc1cc(C(=O)N2Cc3ccc(C(=O)N4CCN(CCCN(C)C)CC4)n3Cc3ccccc32)ccc1-c1ccccc1C(F)(F)F [Example 4, [4-(3-Dimethylaminopropyl)-piperazin-1-yl]-[10-(2-methyl-2′-trifluoromethyl-[1,1′-biphenyl]-4-yl)carbonyl]-[10,11-dihydro-5H-pyrrolo[2,1-c][1,4]benzodiazepin-3-yl]-methanone]",8.89 nM
11,"COc1cc(-c2ccccc2C)c(Cl)cc1C(=O)N1Cc2ccc(C(=O)N3CCC(N4CCCCC4)CC3)n2Cc2ccccc21 [Example 110, {10-[(6-Chloro-3-methoxy-2′-methyl[1,1′-biphenyl]-4-yl)carbonyl]-10,11-dihydro-5H-pyrrolo[2,1-c][1,4]benzodiazepin-3-yl}[4-(1-piperidinyl)-1-piperidinyl]methanone]",7.93 nM
12,"COc1cccc(-c2ccc(C(=O)N3Cc4ccc(C(=O)N5CCC[C@H]5CN5CCCC5)n4Cc4ccccc43)cc2C)c1 [Example 263, {10-[(3′-Methoxy-2-methyl[1,1′-biphenyl]-4-yl)carbonyl]-10,11-dihydro-5H-pyrrolo[2,1-c][1,4]benzodiazepin-3-yl}[(2S)-2-(1-pyrrolidinylmethyl)pyrrolidinyl]methanone]",2.31 nM
13,"COc1cc(-c2ccccc2F)c(Cl)cc1C(=O)N1Cc2cccn2Cc2ccccc21 [Example 18B, 10-{[6-Chloro-3-methoxy-2′-fluoro-[1,1′-biphenyl]-4-yl]carbonyl}-10,11-dihydro-5H-pyrrolo[2,1-c][1,4]benzodiazepine]",14.5 nM
14,"Cc1cc(C(=O)N2Cc3ccc(C(=O)N4CCN(C)CC4)n3Cc3ccccc32)ccc1-c1ccccc1C(F)(F)F [Example 2, (4-Methyl-piperazin-1-yl)-[10-(2-methyl-2′-trifluoromethyl-[1,1′-biphenyl]-4-yl)-carbonyl]-10,11-dihydro-5H-pyrrolo[2,1-c][1,4]benzodiazepin-3-yl-methanone]",12.5 nM
15,"COc1cc(-c2ccccc2C(F)(F)F)c(OC)cc1C(=O)N1Cc2cccn2Cc2ccccc21 [Example 32, 10-{[3,6-Dimethoxy-2′-trifluoromethyl-[1,1′-biphenyl]-4-yl]carbonyl}-10,11-dihydro-5H-pyrrolo[2,1-c][1,4]benzodiazepine]",185 nM
16,"C=CCN1CCN(C(=O)c2ccc3n2Cc2ccccc2N(C(=O)c2ccc(-c4ccccc4C)c(C)c2)C3)CC1 [Example 220, (4-Allyl-1-piperazinyl){10-[(2,2′-dimethyl[1,1′-biphenyl]-4-yl)carbonyl]-10,11-dihydro-5H -pyrrolo[2,1-c][1,4]benzodiazepin-3-yl}methanone]",7.2 nM
17,"COc1ccccc1-c1ccc(C(=O)N2Cc3ccc(C(=O)N4CCN(CCCN(C)C)CC4)n3Cc3ccccc32)cc1C [Example 245, {4-[3-(Dimethylamino)propyl]-1-piperazinyl}{10-[(2′-methoxy-2-methyl[1,1′-biphenyl]-4-yl)carbonyl]-10,11-dihydro-5H-pyrrolo[2,1-c][1,4]benzodiazepin-3-yl}methanone]",16.9 nM
